According to the CheMixHub viscosity set:
± gives the uncertainty stated by the source.

Test: xn = mol fraction of the nth substance listed

CCCCOCCO + OCCOCCO
101 kPa
Settings	viscosity [mPa·s]
293.15 K, x1 = 0.0527	34.87 ± 0.23
293.15 K, x1 = 0.1006	31.53 ± 0.2
293.15 K, x1 = 0.1978	25.56 ± 0.16
293.15 K, x1 = 0.2838	21.2 ± 0.13
293.15 K, x1 = 0.3994	16.51 ± 0.099
293.15 K, x1 = 0.4508	14.78 ± 0.088
293.15 K, x1 = 0.5016	13.23 ± 0.078
293.15 K, x1 = 0.5487	11.92 ± 0.07
293.15 K, x1 = 0.5792	11.12 ± 0.065
293.15 K, x1 = 0.6735	8.899 ± 0.052
293.15 K, x1 = 0.7975	6.435 ± 0.039
293.15 K, x1 = 0.8946	4.816 ± 0.03
293.15 K, x1 = 0.9556	3.894 ± 0.024
298.15 K, x1 = 0.0486	27.11 ± 0.18
298.15 K, x1 = 0.0983	24.47 ± 0.16
298.15 K, x1 = 0.2015	19.76 ± 0.12
298.15 K, x1 = 0.2993	16.07 ± 0.1
298.15 K, x1 = 0.3999	12.89 ± 0.079
298.15 K, x1 = 0.4504	11.5 ± 0.07
298.15 K, x1 = 0.4981	10.3 ± 0.063
298.15 K, x1 = 0.5447	9.244 ± 0.056
298.15 K, x1 = 0.5844	8.422 ± 0.051
298.15 K, x1 = 0.6781	6.756 ± 0.041
298.15 K, x1 = 0.7974	5.096 ± 0.032
298.15 K, x1 = 0.8989	3.946 ± 0.025
298.15 K, x1 = 0.9494	3.392 ± 0.021
303.15 K, x1 = 0.0465	19.89 ± 0.13
303.15 K, x1 = 0.0998	17.79 ± 0.12
303.15 K, x1 = 0.2008	14.36 ± 0.093
303.15 K, x1 = 0.2979	11.66 ± 0.075
303.15 K, x1 = 0.4002	9.382 ± 0.06
303.15 K, x1 = 0.4487	8.472 ± 0.054
303.15 K, x1 = 0.491	7.751 ± 0.049
303.15 K, x1 = 0.5513	6.832 ± 0.043
303.15 K, x1 = 0.6	6.167 ± 0.039
303.15 K, x1 = 0.7032	4.949 ± 0.032
303.15 K, x1 = 0.8025	3.971 ± 0.025
303.15 K, x1 = 0.8829	3.29 ± 0.021
303.15 K, x1 = 0.9536	2.765 ± 0.017

CCCCOCCO + OCCOCCOCCO
101 kPa
Settings	viscosity [mPa·s]
293.15 K, x1 = 0.048	36.14 ± 0.23
293.15 K, x1 = 0.111	30.89 ± 0.2
293.15 K, x1 = 0.1958	25.06 ± 0.15
293.15 K, x1 = 0.3023	19.11 ± 0.12
293.15 K, x1 = 0.4053	14.62 ± 0.087
293.15 K, x1 = 0.4492	12.94 ± 0.077
293.15 K, x1 = 0.4988	11.29 ± 0.067
293.15 K, x1 = 0.5502	9.833 ± 0.058
293.15 K, x1 = 0.5922	8.791 ± 0.052
293.15 K, x1 = 0.6915	6.755 ± 0.041
293.15 K, x1 = 0.7959	5.249 ± 0.032
293.15 K, x1 = 0.8902	4.37 ± 0.027
293.15 K, x1 = 0.9457	3.879 ± 0.024
298.15 K, x1 = 0.0536	30.5 ± 0.2
298.15 K, x1 = 0.1049	27.17 ± 0.17
298.15 K, x1 = 0.2064	21.51 ± 0.13
298.15 K, x1 = 0.2953	17.55 ± 0.11
298.15 K, x1 = 0.3982	13.71 ± 0.082
298.15 K, x1 = 0.4518	12.06 ± 0.072
298.15 K, x1 = 0.5018	10.7 ± 0.064
298.15 K, x1 = 0.5494	9.463 ± 0.056
298.15 K, x1 = 0.5998	8.336 ± 0.05
298.15 K, x1 = 0.6966	6.451 ± 0.039
298.15 K, x1 = 0.7997	4.971 ± 0.031
298.15 K, x1 = 0.8916	3.873 ± 0.024
298.15 K, x1 = 0.9411	3.369 ± 0.021
303.15 K, x1 = 0.0501	26.39 ± 0.17
303.15 K, x1 = 0.1015	23.75 ± 0.15
303.15 K, x1 = 0.197	19.42 ± 0.12
303.15 K, x1 = 0.3006	15.59 ± 0.095
303.15 K, x1 = 0.4006	12.58 ± 0.076
303.15 K, x1 = 0.4531	11.14 ± 0.067
303.15 K, x1 = 0.4972	10.12 ± 0.061
303.15 K, x1 = 0.5469	8.986 ± 0.054
303.15 K, x1 = 0.6012	7.888 ± 0.047
303.15 K, x1 = 0.6893	6.343 ± 0.039
303.15 K, x1 = 0.803	4.661 ± 0.029
303.15 K, x1 = 0.89	3.59 ± 0.022
303.15 K, x1 = 0.9416	3.02 ± 0.019

CCOC(=O)CCl + OCc1ccccc1
viscosity [mPa·s], 101.3 kPa
Settings	x1 = 0.1072	x1 = 0.2035	x1 = 0.2998	x1 = 0.395	x1 = 0.5	x1 = 0.5984	x1 = 0.6981	x1 = 0.7972	x1 = 0.8941
298.15 K	4.078 ± 0.049	3.295 ± 0.04	2.729 ± 0.034	2.285 ± 0.028	1.923 ± 0.024	1.669 ± 0.021	1.459 ± 0.019	1.326 ± 0.017	1.188 ± 0.016
303.15 K	3.567 ± 0.043	2.887 ± 0.035	2.428 ± 0.03	2.036 ± 0.026	1.747 ± 0.022	1.516 ± 0.019	1.334 ± 0.017	1.209 ± 0.016	1.092 ± 0.014
308.15 K	3.058 ± 0.037	2.48 ± 0.031	2.127 ± 0.027	1.815 ± 0.023	1.572 ± 0.02	1.365 ± 0.018	1.209 ± 0.016	1.093 ± 0.014	0.997 ± 0.013

[Cl-].[Cl-].[Cl-].[Cl-].[Ti+4] + [Cl-].[Cl-].[Cl-].[Cl-].[Sn+4]
viscosity [mPa·s], 101 kPa
Settings	x2 = 0.2	x2 = 0.4	x2 = 0.6	x2 = 0.8
293.15 K	0.847 ± 0.015	0.87 ± 0.015	0.895 ± 0.015	0.922 ± 0.016
313.15 K	0.702 ± 0.012	0.703 ± 0.012	0.705 ± 0.012	0.709 ± 0.012

CC(C)CC(C)C + c1ccccc1
101 kPa, x1 = 0.5
Settings	viscosity [mPa·s]
298 K	0.3825 ± 0.01
318 K	0.314 ± 0.0085

CCCCOCCO + c1ccccc1
viscosity [mPa·s], 101 kPa
Settings	298.15 K	308.15 K
x1 = 0.0553	0.648 ± 0.012	0.562 ± 0.01
x1 = 0.1496	0.736 ± 0.013	0.631 ± 0.011
x1 = 0.2488	0.845 ± 0.015	0.717 ± 0.013
x1 = 0.3504	0.978 ± 0.016	0.821 ± 0.014
x1 = 0.4555	1.144 ± 0.019	0.949 ± 0.016
x1 = 0.4995	1.223 ± 0.02	1.011 ± 0.017
x1 = 0.5504	1.323 ± 0.022	1.088 ± 0.018
x1 = 0.6482	1.543 ± 0.025	1.258 ± 0.021
x1 = 0.7535	1.83 ± 0.029	1.479 ± 0.024
x1 = 0.8483	2.143 ± 0.033	1.718 ± 0.028
x1 = 0.9556	2.575 ± 0.04	2.048 ± 0.033

CCOC(=O)CCl + c1ccccc1
viscosity [mPa·s], 101.3 kPa
Settings	x1 = 0.0985	x1 = 0.1983	x1 = 0.2974	x1 = 0.3925	x1 = 0.5049	x1 = 0.6023	x1 = 0.696	x1 = 0.7994	x1 = 0.8998
298.15 K	0.634 ± 0.006	0.659 ± 0.007	0.694 ± 0.007	0.734 ± 0.007	0.781 ± 0.007	0.834 ± 0.008	0.886 ± 0.008	0.949 ± 0.008	1.019 ± 0.009
303.15 K	0.592 ± 0.006	0.616 ± 0.006	0.649 ± 0.007	0.687 ± 0.007	0.731 ± 0.007	0.779 ± 0.007	0.825 ± 0.008	0.883 ± 0.008	0.948 ± 0.009
308.15 K	0.549 ± 0.006	0.574 ± 0.006	0.605 ± 0.006	0.64 ± 0.007	0.681 ± 0.007	0.723 ± 0.007	0.765 ± 0.007	0.82 ± 0.008	0.878 ± 0.008

COC(=O)c1ccccc1 + c1ccccc1
viscosity [mPa·s], 101 kPa
Settings	x1 = 0.0773	x1 = 0.1534	x1 = 0.2362	x1 = 0.3252	x1 = 0.4217	x1 = 0.5176	x1 = 0.6241	x1 = 0.7379	x1 = 0.8662
303.15 K	0.613 ± 0.011	0.675 ± 0.011	0.75 ± 0.01	0.835 ± 0.012	0.929 ± 0.012	1.043 ± 0.012	1.165 ± 0.013	1.305 ± 0.013	1.482 ± 0.014
313.15 K	0.543 ± 0.011	0.588 ± 0.011	0.645 ± 0.011	0.71 ± 0.01	0.784 ± 0.012	0.874 ± 0.012	0.985 ± 0.012	1.107 ± 0.013	1.245 ± 0.013

O=C(OCc1ccccc1)c1ccccc1 + c1ccccc1
viscosity [mPa·s], 101 kPa
Settings	x1 = 0.11	x1 = 0.1886	x1 = 0.27	x1 = 0.4124	x1 = 0.52	x1 = 0.5911	x1 = 0.7827	x1 = 0.8954
298.15 K	0.9057 ± 0.0095	1.196 ± 0.032	1.514 ± 0.016	2.301 ± 0.061	3.073 ± 0.034	3.584 ± 0.095	5.478 ± 0.15	6.883 ± 0.18
313.15 K	0.7205 ± 0.0075	–	1.161 ± 0.012	–	2.18 ± 0.023	–	–	–

c1ccc2c(c1)CCCC2 + c1ccccc1
298.15 K, 101 kPa
Settings	viscosity [mPa·s]
x1 = 0.1394	0.719 ± 0.0095
x1 = 0.3016	0.8758 ± 0.011
x1 = 0.493	1.098 ± 0.014
x1 = 0.7222	1.445 ± 0.019
